Results reported in paper PMC7324980, “A novel bacterial β-N-acetyl glucosaminidase from Chitinolyticbacter meiyuanensis possessing transglycosylation and reverse hydrolysis activities” (Biotechnology for Biofuels, 2020).

Biological target: T1, CmNAGase (Chitinolyticbacter meiyuanensis, UniProt A0A7D5C7R1)
T1 construct: full length, 836 residues (2508 bp), no signal peptide predicted, C-terminal His6-tag, pET-28a(+), E. coli BL21(DE3), 92 kDa; native peptides […], […], […]; catalytic D508, E509
Assay: pNP release at […] nm, Lineweaver-Burk
Assay type: biochemical
Details: 50 mM sodium citrate, pH 5.4, 40 °C, 50-1000 μM substrate

T1 sequence (A0A7D5C7R1 entry or part of it): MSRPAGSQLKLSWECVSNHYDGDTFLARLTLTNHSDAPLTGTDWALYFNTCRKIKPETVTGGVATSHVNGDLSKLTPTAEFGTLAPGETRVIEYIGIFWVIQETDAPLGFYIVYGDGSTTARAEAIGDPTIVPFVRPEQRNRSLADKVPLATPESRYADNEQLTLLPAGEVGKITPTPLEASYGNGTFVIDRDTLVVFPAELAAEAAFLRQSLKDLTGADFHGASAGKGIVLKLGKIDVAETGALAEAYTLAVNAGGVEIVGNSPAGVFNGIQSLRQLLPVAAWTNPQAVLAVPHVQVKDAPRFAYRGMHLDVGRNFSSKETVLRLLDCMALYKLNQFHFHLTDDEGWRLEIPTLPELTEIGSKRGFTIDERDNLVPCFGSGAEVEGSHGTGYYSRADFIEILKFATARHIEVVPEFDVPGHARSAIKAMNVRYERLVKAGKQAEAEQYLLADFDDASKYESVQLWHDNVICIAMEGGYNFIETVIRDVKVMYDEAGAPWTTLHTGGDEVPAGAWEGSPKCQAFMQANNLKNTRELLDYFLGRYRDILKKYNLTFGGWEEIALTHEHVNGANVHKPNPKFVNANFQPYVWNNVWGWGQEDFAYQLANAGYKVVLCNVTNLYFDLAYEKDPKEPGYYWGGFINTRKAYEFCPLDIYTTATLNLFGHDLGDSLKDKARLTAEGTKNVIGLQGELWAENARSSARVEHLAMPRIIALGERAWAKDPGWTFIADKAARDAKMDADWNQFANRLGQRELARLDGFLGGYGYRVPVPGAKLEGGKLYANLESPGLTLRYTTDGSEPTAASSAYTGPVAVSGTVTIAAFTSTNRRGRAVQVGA

## CC(=O)N[C@H]1[C@H](Oc2ccc([N+](=O)[O-])cc2)O[C@H](CO)[C@@H](O)[C@@H]1O [pNP-GlcNAc]
  Km: 500 µM
